Measured values from patent US20250368666A1, “INDAZOLE COMPOUNDS” (TYRA BIOSCIENCES, INC., priority 2022, published 2025).
pIC50: −log10 of the molar value. Like-named read-outs stand apart in the source and are kept apart here.

Key:
FGFR1 = biological target: T1, FGFR1 (Homo sapiens, UniProt P11362); test: Kinase binding assay (kinase-tagged T7 phage, affinity beads, qPCR), Kd; details: read-out: FGFR1 (Kd nM)
T1 construct: made in house; host or cells: E. coli (BL21-derived), T7 phage
In short: (§1)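 Readout was qPCR of kinase eluted from ligand-coated affinity beads after competition with test compound. Kinases were expressed as T7 phage fusions in E. coli. Binding constants were derived by non-linear least-squares Hill fitting, Hill slope −1.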

FGFR2 = biological target: T2, FGFR2 (Homo sapiens, UniProt P21802); test: as above; details: read-out: FGFR2 (Kd nM)
T2 construct: made in house; host or cells: E. coli (BL21-derived), T7 phage
T2 sequence (P21802 22-821): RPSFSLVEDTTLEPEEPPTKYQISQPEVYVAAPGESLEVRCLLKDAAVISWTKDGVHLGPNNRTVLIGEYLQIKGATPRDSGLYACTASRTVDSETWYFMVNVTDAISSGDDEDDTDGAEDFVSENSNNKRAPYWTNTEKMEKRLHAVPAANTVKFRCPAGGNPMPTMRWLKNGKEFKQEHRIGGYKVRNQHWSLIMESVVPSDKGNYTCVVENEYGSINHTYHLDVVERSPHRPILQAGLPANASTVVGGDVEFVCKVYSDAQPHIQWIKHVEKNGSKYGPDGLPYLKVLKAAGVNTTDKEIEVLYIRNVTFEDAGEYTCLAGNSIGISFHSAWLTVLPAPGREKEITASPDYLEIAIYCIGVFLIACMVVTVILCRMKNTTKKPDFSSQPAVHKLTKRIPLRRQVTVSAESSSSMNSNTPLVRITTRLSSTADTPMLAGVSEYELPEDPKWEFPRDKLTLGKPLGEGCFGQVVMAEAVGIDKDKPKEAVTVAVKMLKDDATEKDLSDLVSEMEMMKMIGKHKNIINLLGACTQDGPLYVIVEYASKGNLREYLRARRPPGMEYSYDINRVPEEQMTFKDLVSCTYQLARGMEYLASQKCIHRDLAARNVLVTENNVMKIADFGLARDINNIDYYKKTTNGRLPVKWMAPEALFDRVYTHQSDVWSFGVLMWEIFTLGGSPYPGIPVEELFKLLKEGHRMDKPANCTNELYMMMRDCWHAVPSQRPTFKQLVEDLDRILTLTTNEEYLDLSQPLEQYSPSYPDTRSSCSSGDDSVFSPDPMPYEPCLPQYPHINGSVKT
In short: as §1

FGFR3 = biological target: T3, FGFR3 (Homo sapiens, UniProt P22607); test: as above; details: read-out: FGFR3 (Kd nM)
T3 construct: made in house; host or cells: E. coli (BL21-derived), T7 phage
T3 sequence (P22607 23-806): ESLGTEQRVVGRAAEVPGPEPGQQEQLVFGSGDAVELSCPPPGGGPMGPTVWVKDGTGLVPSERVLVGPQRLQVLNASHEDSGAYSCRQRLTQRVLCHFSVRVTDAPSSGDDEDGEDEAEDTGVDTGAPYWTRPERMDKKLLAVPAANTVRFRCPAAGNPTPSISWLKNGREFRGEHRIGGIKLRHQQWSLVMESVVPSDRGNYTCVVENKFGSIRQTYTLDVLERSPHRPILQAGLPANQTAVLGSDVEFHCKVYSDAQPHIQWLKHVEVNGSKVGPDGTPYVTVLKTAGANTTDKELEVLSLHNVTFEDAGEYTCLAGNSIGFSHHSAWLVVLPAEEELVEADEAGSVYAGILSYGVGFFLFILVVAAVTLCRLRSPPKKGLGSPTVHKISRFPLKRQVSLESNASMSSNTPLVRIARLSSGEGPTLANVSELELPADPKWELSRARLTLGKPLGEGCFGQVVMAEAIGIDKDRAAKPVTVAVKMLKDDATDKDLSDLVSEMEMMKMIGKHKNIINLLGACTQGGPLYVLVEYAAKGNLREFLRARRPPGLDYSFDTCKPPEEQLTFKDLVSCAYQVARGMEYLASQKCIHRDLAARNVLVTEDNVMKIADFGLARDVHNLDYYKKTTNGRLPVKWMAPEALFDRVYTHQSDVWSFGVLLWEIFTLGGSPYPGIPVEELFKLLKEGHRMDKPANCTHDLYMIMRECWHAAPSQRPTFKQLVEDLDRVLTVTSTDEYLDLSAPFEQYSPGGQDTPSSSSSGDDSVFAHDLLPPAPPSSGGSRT
In short: as §1

FGFR3 (V555M) = biological target: T4, FGFR3 (V555M) (Homo sapiens, UniProt P22607, V555M); test: as above; details: V555M mutant; read-out: FGFR3 (V555M) (Kd nM)
T4 construct: made in house; host or cells: E. coli (BL21-derived), T7 phage
T4 sequence (P22607 23-806 V555M): as the sequence (P22607 23-806) above, with V533M counted along it
In short: as §1

FGFR4 = biological target: T5, FGFR4 (Homo sapiens, UniProt P22455); test: as above; details: read-out: FGFR4 (Kd nM)
T5 construct: made in house; host or cells: E. coli (BL21-derived), T7 phage
T5 sequence (P22455 22-802): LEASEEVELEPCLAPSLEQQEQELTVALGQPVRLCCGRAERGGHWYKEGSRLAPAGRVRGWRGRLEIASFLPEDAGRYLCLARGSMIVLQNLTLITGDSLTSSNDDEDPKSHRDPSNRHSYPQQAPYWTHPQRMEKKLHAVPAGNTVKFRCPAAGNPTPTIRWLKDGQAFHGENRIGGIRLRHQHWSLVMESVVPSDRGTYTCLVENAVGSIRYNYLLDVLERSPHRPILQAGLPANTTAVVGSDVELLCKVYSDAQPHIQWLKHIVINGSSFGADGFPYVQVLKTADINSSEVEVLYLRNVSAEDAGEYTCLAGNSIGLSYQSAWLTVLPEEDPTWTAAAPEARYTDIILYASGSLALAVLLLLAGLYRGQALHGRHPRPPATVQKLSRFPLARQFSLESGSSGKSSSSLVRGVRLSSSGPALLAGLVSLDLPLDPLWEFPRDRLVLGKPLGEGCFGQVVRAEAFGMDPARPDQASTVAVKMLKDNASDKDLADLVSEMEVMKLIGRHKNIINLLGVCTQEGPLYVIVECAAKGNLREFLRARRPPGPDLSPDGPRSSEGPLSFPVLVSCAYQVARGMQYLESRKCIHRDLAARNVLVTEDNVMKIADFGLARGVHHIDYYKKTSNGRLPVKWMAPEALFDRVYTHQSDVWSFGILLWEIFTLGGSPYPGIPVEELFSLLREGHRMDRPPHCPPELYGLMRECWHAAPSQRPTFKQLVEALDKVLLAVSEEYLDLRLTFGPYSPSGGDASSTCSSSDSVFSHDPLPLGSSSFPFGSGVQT
In short: as §1

[1] = tested on: KATO-III cell line (FGFR2 amplification); test: Cancer cell line cell viability assay (Cell Titer-Glo), 72 hr; assay type: cell-based; details: Homo sapiens, KATO III
Description: (§2) Experimental Purpose: To detect the change of intracellular ATP by Cell Titer-Glo® and to evaluate the inhibitory effect of the compounds on cancer cell lines by determining the in vitro IC50 value of the compounds.
(§3) Cell Titer-Glo® 2.0 Luminescent cell viability assay reagent was purchased from Promega (Madison, WI). KG-1, KATO-III, and MDA-MB-453 cell lines were purchased from American Type Culture Collection (Manassas, VA). RT112/84 cell line was purchased from Millipore-Sigma (St. Louis, MO). HuH7 cells were purchased from Seikisui Xenotech (Kansas City, KS). RT112/84 and MDA-MB-453 cells were cultured in RPMI1640 media supplemented with 10% fetal bovine serum. KG-1 and KATO-III cell lines were cultured in IMDM media supplemented with 20% FBS. HuH7 cells were cultured in IMDM media supplemented with 10% FBS. Cultures were maintained at 37° C. in a humidified atmosphere of 5% CO2 and 95% air.
(§4) Cell Viability Assay Procedure: Cells were plated in 96-well clear bottom/white plates (Corning #3903) at a range of densities depending on the optimal assay window (5,000-20,000 cells/well in […] of media), incubated overnight. The next day, test compound DMSO stock solutions were made at 10 mM and […] final concentration. Compounds were then added to cells in a 9-dose, 4-fold dilution series starting at 3 μM with an HP 300e Digital Dispenser (each dose was applied in triplicate). DMSO was backfilled to each well up to 301 nL total volume of test compound+DMSO, and a total of 301 nL DMSO was added to a control/no test compound well in triplicate. The cells in cell culture plates were incubated with the compounds at 37° C. and 5% CO2 for 72 hours-120 hours depending on the cell line. Then 50 μl of Cell Titer Glo 2.0 reagent was added to each well of the cell culture plates. The contents were covered from light and mixed on an orbital shaker at room temperature for minimum of 10 min. Luminescence was recorded by a Clariostar Plus Microplate Reader (BMG Labtech, Cary, NC). Cells were assessed as a percentage of DMSO only treated control cells. Curves were plotted and IC50 values were calculated using the GraphPad Prism 9 program based on a sigmoidal dose-response equation (log (inhibitor) vs. response—Variable slope, 4-parameter).

[2] = tested on: KG-1 cell line (FGFR 1-fusion); test: as above; assay type: cell-based; details: Homo sapiens, KG-1, KG-1 cell line (FGFR1-fusion)
Description: as §2, §3, §4

[3] = tested on: RT112/84 cell line (FGFR3-fusion); test: as above; assay type: cell-based; details: Homo sapiens, RT112/84, RT112/84 cell line (FGFR3-fusion)
Description: as §2, §3, §4

[4] = kinase binding assay, 11-point 3-fold dilution series

T1 sequence (P11362 22-822): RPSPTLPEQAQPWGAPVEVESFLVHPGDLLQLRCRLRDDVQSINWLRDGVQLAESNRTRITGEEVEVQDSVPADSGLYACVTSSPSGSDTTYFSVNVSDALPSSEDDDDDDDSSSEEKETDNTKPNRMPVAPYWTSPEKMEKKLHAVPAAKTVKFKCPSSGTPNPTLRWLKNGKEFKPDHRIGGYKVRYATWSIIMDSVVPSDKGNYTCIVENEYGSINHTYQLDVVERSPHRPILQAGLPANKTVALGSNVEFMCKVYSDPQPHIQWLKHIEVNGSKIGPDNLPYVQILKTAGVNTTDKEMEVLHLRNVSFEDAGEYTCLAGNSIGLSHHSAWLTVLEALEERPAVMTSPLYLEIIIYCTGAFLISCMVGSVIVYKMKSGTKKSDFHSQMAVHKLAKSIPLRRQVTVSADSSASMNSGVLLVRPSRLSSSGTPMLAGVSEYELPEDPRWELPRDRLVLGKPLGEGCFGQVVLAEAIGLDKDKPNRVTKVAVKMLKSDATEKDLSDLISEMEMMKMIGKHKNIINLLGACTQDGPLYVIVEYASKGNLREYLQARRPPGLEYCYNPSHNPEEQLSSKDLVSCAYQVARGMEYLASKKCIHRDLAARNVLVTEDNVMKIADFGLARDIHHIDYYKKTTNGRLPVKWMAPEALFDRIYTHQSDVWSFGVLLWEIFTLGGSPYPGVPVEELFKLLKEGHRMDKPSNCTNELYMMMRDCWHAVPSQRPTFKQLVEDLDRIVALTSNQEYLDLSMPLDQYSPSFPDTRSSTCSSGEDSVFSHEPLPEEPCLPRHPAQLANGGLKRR

SMILES	Kd (FGFR1)	Kd (FGFR2)	Kd (FGFR3)	Kd (FGFR3 (V555M))	Kd (FGFR4)	pIC50 [1]	pIC50 [2]	pIC50 [3]	Kd (FGFR1; [4])	Kd (FGFR3; [4])
CNC1(C)CN(c2ccc(-c3n[nH]c4cc(F)c(O[C@H](C)c5c(Cl)cncc5Cl)cc34)cn2)C1 [Example 59, 1-[5-[5-[(1R)-1-(3,5-dichloro-4-pyridyl)ethoxy]-6-fluoro-1H-indazol-3-yl]-2-pyridyl]-N,3-dimethyl-azetidin-3-amine]	1 to 50 nM	1 to 50 nM	1 to 50 nM	1 to 50 nM	1 to 50 nM	6.00 to 6.70	6.00 to 6.70	7.30 to 10.00	–	–
C[C@@H](Oc1cc2c(-c3cnc(N4CC5(CC5)C4)nc3)n[nH]c2cc1F)c1c(Cl)cncc1Cl [Example 60, 3-[2-(5-azaspiro[2.3]hexan-5-yl)pyrimidin-5-yl]-5-[(1R)-1-(3,5-dichloro-4-pyridyl)ethoxy]-6-fluoro-1H-indazole]	50 to 300 nM	300 to 1000 nM	1 to 50 nM	1 to 50 nM	1 to 50 nM	< 6.00	< 6.00	6.70 to 7.30	–	–
C[C@@H](Oc1ccc2[nH]nc(-c3ccc(N4CC(C)(NC5COC5)C4)nc3)c2c1)c1c(Cl)cncc1Cl [Example 64, (R)-1-(5-(5-(1-(3,5-dichloropyridin-4-yl)ethoxy)-1H-indazol-3-yl)pyridin-2-yl)-3-methyl-N-(oxetan-3-yl)azetidin-3-amine]	1 to 50 nM	1 to 50 nM	1 to 50 nM	1 to 50 nM	1 to 50 nM	7.30 to 10.00	7.30 to 10.00	7.30 to 10.00	–	–
COc1cc2[nH]nc(-c3ccc(N4CC(C)(N[C@H]5CCOC5)C4)nc3)c2cc1O[C@H](C)c1c(Cl)cncc1Cl [Example 66, 1-(5-(5-((R)-1-(3,5-dichloropyridin-4-yl)ethoxy)-6-methoxy-1H-indazol-3-yl)pyridin-2-yl)-3-methyl-N-((S)-tetrahydrofuran-3-yl)azetidin-3-amine]	1 to 50 nM	1 to 50 nM	1 to 50 nM	1 to 50 nM	1 to 50 nM	7.30 to 10.00	7.30 to 10.00	7.30 to 10.00	–	–
C[C@@H](Oc1cc2c(-c3ccc(N4CC(C)(CP(C)(C)=O)C4)nc3)n[nH]c2cc1F)c1c(Cl)cncc1Cl [Example 67, (R)-((1-(5-(5-(1-(3,5-dichloropyridin-4-yl)ethoxy)-6-fluoro-1H-indazol-3-yl)pyridin-2-yl)-3-methylazetidin-3-yl)methyl)dimethylphos-phine oxide]	1 to 50 nM	1 to 50 nM	1 to 50 nM	1 to 50 nM	1 to 50 nM	7.30 to 10.00	6.00 to 6.70	7.30 to 10.00	–	–
Cc1ncc(Cl)c([C@@H](C)Oc2ccc3[nH]nc(-c4ccc(N5CC(C)(NC6CCC6)C5)nc4)c3c2)c1Cl [Example 71, N-cyclobutyl-1-[5-[5-[(1R)-1-(3,5-dichloro-2-methyl-4-pyridyl)ethoxy]-1H-indazol-3-yl]-2-pyridyl]-3-methyl-azetidin-3-amine]	1 to 50 nM	1 to 50 nM	1 to 50 nM	1 to 50 nM	1 to 50 nM	6.70 to 7.30	6.00 to 6.70	7.30 to 10.00	–	–
CCN(CC)C1(C)CN(c2ccc(-c3n[nH]c4ccc(O[C@H](C)c5c(Cl)cnc(C)c5Cl)cc34)cn2)C1 [Example 72, 1-[5-[5-[(1R)-1-(3,5-dichloro-2-methyl-4-pyridyl)ethoxy]-1H-indazol-3-yl]-2-pyridyl]-N,N-diethyl-3-methyl-azetidin-3-amine]	1 to 50 nM	1 to 50 nM	1 to 50 nM	1 to 50 nM	1 to 50 nM	6.70 to 7.30	6.00 to 6.70	7.30 to 10.00	–	–
C[C@@H](Oc1ccc2[nH]nc(-c3ccc(N4CC(N)(c5ccnn5C)C4)nn3)c2c1)c1c(Cl)cncc1Cl [Example 391, (R)-1-(6-(5-(1-(3,5-dichloropyridin-4-yl)ethoxy)-1H-indazol-3-yl)pyridazin-3-yl)-3-(1-methyl-1H-pyrazol-5-yl)azetidin-3-amine]	–	–	–	–	–	7.30 to 10.00	6.70 to 7.30	7.30 to 10.00	1 to 50 nM	1 to 50 nM

More lines, now with the values ahead:

Kd (FGFR1)	Kd (FGFR2)	Kd (FGFR3)	Kd (FGFR3 (V555M))	Kd (FGFR4)	pIC50 [1]	pIC50 [2]	pIC50 [3]	Kd (FGFR1; [4])	Kd (FGFR3; [4])	SMILES
1 to 50 nM	1 to 50 nM	1 to 50 nM	1 to 50 nM	1 to 50 nM	7.30 to 10.00	6.70 to 7.30	7.30 to 10.00	–	–	C[C@@H](Oc1ccc2[nH]nc(-c3ccc(N4CC(C)(NC5CCC5)C4)nc3)c2c1)c1c(Cl)cncc1Cl [Example 63, (R)-N-cyclobutyl-1-(5-(5-(1-(3,5-dichloropyridin-4-yl)ethoxy)-1H-indazol-3-yl)pyridin-2-yl)-3-methylazetidin-3-amine]
–	1 to 50 nM	–	–	–	< 6.00	6.00 to 6.70	7.30 to 10.00	–	–	COc1cc2[nH]nc(-c3cnc(N4CC5(CC5)C4)c(C#N)c3)c2cc1O[C@H](C)c1c(Cl)cncc1Cl [Example 65, 2-(5-azaspiro[2.3]hexan-5-yl)-5-[5-[(1R)-1-(3,5-dichloro-4-pyridyl)ethoxy]-6-methoxy-1H-indazol-3-yl]pyridine-3-carbonitrile]
1 to 50 nM	1 to 50 nM	1 to 50 nM	1 to 50 nM	1 to 50 nM	7.30 to 10.00	6.70 to 7.30	7.30 to 10.00	–	–	Cc1ncc(Cl)c([C@@H](C)Oc2ccc3[nH]nc(-c4ccc(N5CC(C)(NC6COC6)C5)nc4)c3c2)c1Cl [Example 70, 1-[5-[5-[(1R)-1-(3,5-dichloro-2-methyl-4-pyridyl)ethoxy]-1H-indazol-3-yl]-2-pyridyl]-3-methyl-N-(oxetan-3-yl)azetidin-3-amine]
1 to 50 nM	1 to 50 nM	1 to 50 nM	1 to 50 nM	1 to 50 nM	7.30 to 10.00	7.30 to 10.00	7.30 to 10.00	–	–	COc1cc2[nH]nc(-c3ccc(N4CC(C)(N[C@@H]5CCOC5)C4)nc3)c2cc1O[C@H](C)c1c(Cl)cncc1Cl [Example 73, 1-(5-(5-((R)-1-(3,5-dichloropyridin-4-yl)ethoxy)-6-methoxy-1H-indazol-3-yl)pyridin-2-yl)-3-methyl-N-((R)-tetrahydrofuran-3-yl)azetidin-3-amine]
1 to 50 nM	1 to 50 nM	1 to 50 nM	1 to 50 nM	1 to 50 nM	7.30 to 10.00	6.70 to 7.30	7.30 to 10.00	–	–	C[C@@H](Oc1ccc2[nH]nc(-c3ccc(N4CC(C)(CN(C)S(C)(=O)=O)C4)nc3)c2c1)c1c(Cl)cncc1Cl [Example 74, (R)-N-((1-(5-(5-(1-(3,5-dichloropyridin-4-yl)ethoxy)-1H-indazol-3-yl)pyridin-2-yl)-3-methylazetidin-3-yl)methyl)-N-methylmethanesulfona-mide]
–	–	–	–	–	7.30 to 10.00	6.70 to 7.30	7.30 to 10.00	1 to 50 nM	1 to 50 nM	CCOCC1(N)CN(c2ncc(-c3n[nH]c4ccc(O[C@H](C)c5c(Cl)cncc5Cl)cc34)cc2F)C1 [Example 390, 1-[5-[5-[(1R)-1-(3,5-dichloro-4-pyridyl)ethoxy]-1H-indazol-3-yl]-3-fluoro-2-pyridyl]-3-(ethoxymethyl)azeti-din-3-amine]
–	–	–	–	–	7.30 to 10.00	6.70 to 7.30	7.30 to 10.00	1 to 50 nM	1 to 50 nM	C[C@@H](Oc1ccc2[nH]nc(-c3cnc(N4CC(N)(c5ccnn5C)C4)c(F)c3)c2c1)c1c(Cl)cncc1Cl [Example 392, (R)-1-(5-(5-(1-(3,5-dichloropyridin-4-yl)ethoxy)-1H-indazol-3-yl)-3-fluoropyridin-2-yl)-3-(1-methyl-1H-pyrazol-5-yl)azetidin-3-amine]
